Assay results: PubChem BioAssay (NCI)
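Protocol summary: plate cells (96-well), add compound at 5 concentrations, incubate 48 h, interpolate endpoints linearly. Abbreviation: GI50, concentration required for 50% inhibition of growth. TGI marks complete inhibition of growth.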

Legend:
Test in all cases: growth of human tumour cells (NCI), 48 h; in the data active means GI50 below about 0.43 µM; inactive means the rest
786-0 renal = tested on: 786-0 renal
A498 renal = tested on: A498 renal
A549 NSCLC = tested on: A549 NSCLC
ACHN renal = tested on: ACHN renal
BT-549 breast = tested on: BT-549 breast
CAKI-1 renal = tested on: CAKI-1 renal
CCRF-CEM leukemia = tested on: CCRF-CEM leukemia
COLO 205 colon = tested on: COLO 205 colon
DU-145 prostate = tested on: DU-145 prostate
EKVX NSCLC = tested on: EKVX NSCLC
HCC-2998 colon = tested on: HCC-2998 colon
HCT-116 colon = tested on: HCT-116 colon
HCT-15 colon = tested on: HCT-15 colon
HL-60(TB) leukemia = tested on: HL-60(TB) leukemia
HOP-62 NSCLC = tested on: HOP-62 NSCLC
HOP-92 NSCLC = tested on: HOP-92 NSCLC
HS 578T breast = tested on: HS 578T breast
HT29 colon = tested on: HT29 colon
IGROV1 ovarian = tested on: IGROV1 ovarian
K-562 leukemia = tested on: K-562 leukemia
KM12 colon = tested on: KM12 colon
LOX IMVI melanoma = tested on: LOX IMVI melanoma
M14 melanoma = tested on: M14 melanoma
MALME-3M melanoma = tested on: MALME-3M melanoma
MCF7 breast = tested on: MCF7 breast
MDA-MB-231 breast = tested on: MDA-MB-231 breast
MDA-MB-435 = tested on: MDA-MB-435
MOLT-4 leukemia = tested on: MOLT-4 leukemia
NCI-H226 lung = tested on: NCI-H226 lung
NCI-H23 lung = tested on: NCI-H23 lung
NCI-H460 lung = tested on: NCI-H460 lung
NCI-H522 lung = tested on: NCI-H522 lung
NCI/ADR-RES ovarian = tested on: NCI/ADR-RES ovarian
OVCAR-3 ovarian = tested on: OVCAR-3 ovarian
OVCAR-4 ovarian = tested on: OVCAR-4 ovarian
OVCAR-5 ovarian = tested on: OVCAR-5 ovarian
OVCAR-8 ovarian = tested on: OVCAR-8 ovarian
PC-3 prostate = tested on: PC-3 prostate
RPMI-8226 leukemia = tested on: RPMI-8226 leukemia
RXF 393 renal = tested on: RXF 393 renal
SF-268 CNS = tested on: SF-268 CNS
SF-295 CNS = tested on: SF-295 CNS
SF-539 CNS = tested on: SF-539 CNS
SK-MEL-2 melanoma = tested on: SK-MEL-2 melanoma
SK-MEL-28 melanoma = tested on: SK-MEL-28 melanoma
SK-MEL-5 melanoma = tested on: SK-MEL-5 melanoma
SK-OV-3 ovarian = tested on: SK-OV-3 ovarian
SN12C renal = tested on: SN12C renal
SNB-19 CNS = tested on: SNB-19 CNS
SNB-75 CNS = tested on: SNB-75 CNS
SR leukemia = tested on: SR leukemia
SW-620 colon = tested on: SW-620 colon
T-47D breast = tested on: T-47D breast
TK-10 renal = tested on: TK-10 renal
U251 CNS = tested on: U251 CNS
UACC-257 melanoma = tested on: UACC-257 melanoma
UACC-62 melanoma = tested on: UACC-62 melanoma
UO-31 renal = tested on: UO-31 renal

NC(=O)c1sc(-n2cnc3cc(C(F)(F)F)ccc32)cc1OCc1ccccc1Br
> 16.9 µM: TGI (HOP-62 NSCLC)
> 25 µM: TGI (786-0 renal) | TGI (A498 renal) | TGI (A549 NSCLC) | TGI (ACHN renal) | TGI (BT-549 breast) | TGI (CAKI-1 renal) | TGI (CCRF-CEM leukemia) | TGI (COLO 205 colon) | TGI (DU-145 prostate) | TGI (EKVX NSCLC) | TGI (HCC-2998 colon) | TGI (HCT-116 colon) | TGI (HCT-15 colon) | TGI (HL-60(TB) leukemia) | TGI (HOP-92 NSCLC) | TGI (HS 578T breast) | TGI (HT29 colon) | TGI (IGROV1 ovarian) | TGI (K-562 leukemia) | TGI (KM12 colon) | TGI (LOX IMVI melanoma) | TGI (M14 melanoma) | TGI (MALME-3M melanoma) | TGI (MCF7 breast) | TGI (MDA-MB-231 breast) | TGI (MDA-MB-435) | TGI (MOLT-4 leukemia) | TGI (NCI-H226 lung) | TGI (NCI-H23 lung) | TGI (NCI-H460 lung) | TGI (NCI-H522 lung) | TGI (NCI/ADR-RES ovarian) | TGI (OVCAR-3 ovarian) | TGI (OVCAR-4 ovarian) | TGI (OVCAR-5 ovarian) | TGI (OVCAR-8 ovarian) | TGI (PC-3 prostate) | TGI (RPMI-8226 leukemia) | TGI (RXF 393 renal) | TGI (SF-268 CNS) | TGI (SF-295 CNS) | TGI (SF-539 CNS) | TGI (SK-MEL-2 melanoma) | TGI (SK-MEL-28 melanoma) | TGI (SK-MEL-5 melanoma) | TGI (SK-OV-3 ovarian) | TGI (SN12C renal) | TGI (SNB-19 CNS) | TGI (SR leukemia) | TGI (SW-620 colon) | TGI (T-47D breast) | TGI (TK-10 renal) | TGI (U251 CNS) | TGI (UACC-257 melanoma) | TGI (UACC-62 melanoma) | TGI (UO-31 renal)
inactive: GI50 (786-0 renal) 18.4 µM | GI50 (A498 renal) > 25 µM | GI50 (A549 NSCLC) > 25 µM | GI50 (ACHN renal) > 22.4 µM | GI50 (BT-549 breast) > 25 µM | GI50 (CAKI-1 renal) > 25 µM | GI50 (CCRF-CEM leukemia) > 19.2 µM | GI50 (COLO 205 colon) > 25 µM | GI50 (DU-145 prostate) > 25 µM | GI50 (EKVX NSCLC) > 25 µM | GI50 (HCC-2998 colon) > 25 µM | GI50 (HCT-116 colon) > 16 µM | GI50 (HCT-15 colon) > 25 µM | GI50 (HL-60(TB) leukemia) > 25 µM | GI50 (HOP-62 NSCLC) 6.49 µM | GI50 (HOP-92 NSCLC) 8.02 µM | GI50 (HS 578T breast) 12.4 µM | GI50 (HT29 colon) > 19.5 µM | GI50 (IGROV1 ovarian) > 25 µM | GI50 (K-562 leukemia) 24.7 µM | GI50 (KM12 colon) > 19.9 µM | GI50 (LOX IMVI melanoma) > 17.5 µM | GI50 (M14 melanoma) > 25 µM | GI50 (MALME-3M melanoma) > 16.2 µM | GI50 (MCF7 breast) > 13.4 µM | GI50 (MDA-MB-231 breast) > 17.6 µM | GI50 (MDA-MB-435) > 16.5 µM | GI50 (MOLT-4 leukemia) > 25 µM | GI50 (NCI-H226 lung) > 17.2 µM | GI50 (NCI-H23 lung) > 25 µM | GI50 (NCI-H460 lung) > 19.6 µM | GI50 (NCI-H522 lung) > 20 µM | GI50 (NCI/ADR-RES ovarian) > 17.4 µM | GI50 (OVCAR-3 ovarian) > 16.7 µM | GI50 (OVCAR-4 ovarian) 9.02 µM | GI50 (OVCAR-5 ovarian) > 25 µM | GI50 (OVCAR-8 ovarian) 21.4 µM | GI50 (PC-3 prostate) > 20.4 µM | GI50 (RPMI-8226 leukemia) > 23.6 µM | GI50 (RXF 393 renal) > 12.9 µM | GI50 (SF-268 CNS) > 17.5 µM | GI50 (SF-295 CNS) > 25 µM | GI50 (SF-539 CNS) 24.9 µM | GI50 (SK-MEL-2 melanoma) > 25 µM | GI50 (SK-MEL-28 melanoma) > 23.4 µM | GI50 (SK-MEL-5 melanoma) > 16.5 µM | GI50 (SK-OV-3 ovarian) 9.07 µM | GI50 (SN12C renal) 24.6 µM | GI50 (SNB-19 CNS) > 19.1 µM | GI50 (SNB-75 CNS) 8.72 µM | GI50 (SR leukemia) > 21.2 µM | GI50 (SW-620 colon) > 17.9 µM | GI50 (T-47D breast) > 21 µM | GI50 (TK-10 renal) > 25 µM | GI50 (U251 CNS) > 15.8 µM | GI50 (UACC-257 melanoma) > 25 µM | GI50 (UACC-62 melanoma) > 21.6 µM | GI50 (UO-31 renal) > 25 µM
> 18.8 µM: TGI (SNB-75 CNS)
